Here are results for 9 molecules from US20190142810A1, “MITOCHONDRIAL INHIBITORS FOR THE TREATMENT OF PROLIFERATION DISORDERS” (Basilea Pharmaceutica International AG, priority 2016, published 2019).

What all share (type): cell-based
Assay [1] has as its system HeLa glucose versus HeLa galactose cells. Put plainly: Cell growth assays (crystal violet) in HeLa galactose and HeLa glucose cells. To be noted: FIG. 1, crystal violet cell growth assay. The procedure: The cervical tumor cell line HeLa (ATCC, CCL-2) was cultivated in DMEM medium (Invitrogen cat. no. 11971, 4.5 g/L high glucose) containing 10% fetal calf serum (Sigma cat. no. F9665) and 1% Penicillin/Streptomycin (Sigma cat. no. P0781) at 37° C. in 5% CO2. HeLa galactose cells (i.e. HeLa cells that grow in high concentrations of galactose) were generated from HeLa glucose cells (i.e. HeLa cells that grow in high concentrations of glucose) by gradually changing the amount of glucose in the media to zero glucose in the presence of galactose as a sugar source (50% galactose/50% glucose media for one week, then 75% galactose/25% glucose media for one week, to 100% galactose media in the third week). Galactose media (Invitrogen cat. no. 11966) was supplemented with 10 mM galactose (Sigma cat. no. G5388).
Cell Growth and Proliferation Assay of HeLa Galactose and Glucose Cells
HeLa galactose cells and HeLa glucose cells were seeded in 96 well plates (TPP, cat. no 92696) at 2000 and 1500 cells/well, respectively, in 100 μL of complete medium. […] Absorbance at 590 nm was measured using a SpectraMax® 250 plate reader (Molecular Devices). Antiproliferative/growth inhibition IC50s were calculated from concentration-response curves using GraphPad Prism software. […]

Another assay relates to HeLa galactose cells. Put plainly: Cell growth and proliferation assay of HeLa galactose cells (crystal violet). The conditions noted are these: Homo sapiens, HeLa, 72 h, 72 hours incubation, crystal violet staining, absorbance at 590 nm. The procedure, abridged:
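HeLa cells adapted stepwise over three weeks to glucose-free galactose medium plus 10 mM galactose, seeded at 2000 cells/well and treated 72 h with compounds (0.001% DMSO) at 37° C. Growth read by crystal violet staining, dye solubilized and absorbance at 590 nm; IC50 from concentration-response curves.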

Assay [2] concerns Oxygen consumption (mitochondrial function). As to the kind of experiment: Oxygen consumption assay (MitoXpress probe). To be noted: MitoXpress probe signal, kinetic analysis at 37° C. for 5 hours, compared to untreated cells. The procedure, abridged:
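Cells seeded at 50′000/well, after 24 h given fresh media with inhibitor at a range of concentrations, then MitoXpress probe under mineral oil. Kinetic TRF read (380 nm excitation, 650 or 665 nm emission) at 37° C. for 5 hours. IC50 = concentration inhibiting 50% of probe signal versus untreated cells.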

With Antimycin A, in assay [1], the “differential sensitivity in HeLa glucose versus HeLa galactose cell growth” value is “differential sensitivity in HeLa glucose versus HeLa galactose cell growth is exhibited”.
For the molecule `Cc1nsc(NC(=O)N2CCC(=Cc3c(F)cc(C(F)(F)F)cc3F)CC2)n1` [Example 41, 4-[[2,6-difluoro-4-(trifluoromethyl)phenyl]methylene]-N-(3-methyl-1,2,4-thiadiazol-5-yl)piperidine-1-carboxamide], the IC50 (as a rule, the concentration needed to halve the response being measured) is 23 nM with HeLa galactose cells and 41 nM in assay [2] (5 h). The “differential sensitivity in HeLa glucose versus HeLa galactose cell growth” value in assay [1] was “exhibit differential sensitivity”.
Turning to `Cc1nsc(NC(=O)N2CCC(Oc3ccc(OC(F)(F)F)cc3)CC2)n1` [Example 56], the IC50 in the assay on HeLa galactose cells stood at 736 nM; in assay [2] (5 h), 1250 nM.
In the same order, the values of `Cc1nsc(NC(=O)N2CCC(C(=O)c3ccc(Cl)cc3)CC2)n1` [Example 74, 4-(4-chlorobenzoyl)-N-(3-methyl-1,2,4-thiadiazol-5-yl)piperidine-1-carboxamide] are 34 nM and 51 nM.
For `Cc1nsc(NC(=O)N2CCC(Cc3ccc(N(C)C)cc3F)CC2)n1` [Example 46] the same measures were 47 nM and 129 nM.
For `Cc1nsc(NC(=O)N2CCC(=Cc3c(F)cc(N(C)CC#N)cc3F)CC2)n1` [Example 164, 4-[[4-[cyanomethyl(methyl)amino]-2,6-difluoro-phenyl]methylene]-N-(3-methyl-1,2,4-thiadiazol-5-yl)piperidine-1-carboxamide] the same measures were 19 nM and 16 nM.
Turning to `Cc1nsc(NC(=O)N2CCC(Cc3cc(C)c(Cl)cc3F)CC2)n1` [Example 64], the results for the IC50 (with HeLa galactose cells; in assay [2] (5 h)) were 89 nM and 187 nM, respectively.
Take `COc1ccc(C(=O)C2CCN(C(=O)Nc3nc(C)ns3)CC2)c(F)c1` [Example 140, 4-(2-fluoro-4-methoxy-benzoyl)-N-(3-methyl-1,2,4-thiadiazol-5-yl)piperidine-1-carboxamide]: the IC50 in the assay on HeLa galactose cells came out at 43 nM; in assay [2] (5 h) it was 94 nM.
As for `Cc1nsc(NC(=O)N2CCC(Cc3ccc(Cl)cc3F)C(C)C2)n1` (single isomer, unassigned) [Example 84a, 4-[(4-chloro-2-fluoro-phenyl)methyl]-3-methyl-N-(3-methyl-1,2,4-thiadiazol-5-yl)piperidine-1-carboxamide], the IC50 was found to be 47 nM in the assay on HeLa galactose cells and 57 nM in assay [2].
